For two compounds, IC50 and inhibition results are on record in paper PMC2866494 (Phytochemistry, 2010).

The structures appear in SMILES notation.

The target in one experiment is T1, aromatase (CYP19) (Homo sapiens, UniProt P11511).
T1 sequence (P11511 1-503): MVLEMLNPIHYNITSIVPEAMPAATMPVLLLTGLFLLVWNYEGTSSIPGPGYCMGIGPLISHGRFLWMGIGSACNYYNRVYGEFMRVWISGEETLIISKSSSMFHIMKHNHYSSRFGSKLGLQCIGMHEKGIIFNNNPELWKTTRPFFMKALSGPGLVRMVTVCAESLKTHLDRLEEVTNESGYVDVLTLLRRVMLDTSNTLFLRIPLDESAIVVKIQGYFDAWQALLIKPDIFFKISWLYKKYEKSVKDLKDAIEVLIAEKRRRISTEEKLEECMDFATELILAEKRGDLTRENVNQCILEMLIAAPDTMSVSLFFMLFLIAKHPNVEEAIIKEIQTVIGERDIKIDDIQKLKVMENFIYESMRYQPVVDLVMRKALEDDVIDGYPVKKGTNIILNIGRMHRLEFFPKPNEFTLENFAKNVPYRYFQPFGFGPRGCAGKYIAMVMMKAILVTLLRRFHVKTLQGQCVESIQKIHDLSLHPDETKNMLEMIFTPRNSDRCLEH
Kind of experiment: CYP19 enzyme, dibenzylfluorescein fluorescence assay. Format: biochemical.

In the next experiment the target is T2, COX-1 (Ovis aries, UniProt P05979).
T2 sequence (P05979 25-600): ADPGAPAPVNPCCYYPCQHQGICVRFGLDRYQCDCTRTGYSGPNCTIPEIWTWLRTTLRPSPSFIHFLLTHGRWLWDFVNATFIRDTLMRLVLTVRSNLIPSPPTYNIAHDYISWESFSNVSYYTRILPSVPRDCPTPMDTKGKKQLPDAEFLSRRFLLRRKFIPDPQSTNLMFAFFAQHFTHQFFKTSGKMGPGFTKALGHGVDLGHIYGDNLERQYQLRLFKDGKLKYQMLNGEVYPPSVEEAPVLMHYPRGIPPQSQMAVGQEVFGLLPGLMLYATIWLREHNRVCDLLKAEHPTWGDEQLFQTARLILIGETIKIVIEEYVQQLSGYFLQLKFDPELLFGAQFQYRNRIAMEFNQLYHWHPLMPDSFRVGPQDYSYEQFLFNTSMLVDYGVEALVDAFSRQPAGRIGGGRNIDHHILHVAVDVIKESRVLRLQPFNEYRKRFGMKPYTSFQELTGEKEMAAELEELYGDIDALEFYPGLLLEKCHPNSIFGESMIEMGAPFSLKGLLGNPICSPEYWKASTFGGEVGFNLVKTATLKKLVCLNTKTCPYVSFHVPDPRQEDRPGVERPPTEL
Put plainly: COX-1 enzyme assay, PGE2 by LC-MS-MS, single point. Format: biochemical. To be noted: read-out: CX1 ^f.

At aromatase (CYP19), `CC(=O)OC[C@H]1O[C@@H](O[C@@H]2[C@@H](O)[C@@H](O)[C@H](Oc3c(-c4ccc(O)cc4)oc4cc(O)cc(O)c4c3=O)O[C@H]2C)[C@H](O)[C@@H](O)[C@@H]1O` [compound 4, multiflorin A] yielded an IC50 of 15.5 µM.
In the case of `CC(=O)OC[C@H]1OC(O[C@@H]2[C@@H](OCCC(=O)C(C)C)[C@@H](O)[C@H](Oc3c(-c4ccc(O)cc4)oc4cc(O)cc(O)c4c3=O)O[C@H]2C)[C@H](O)[C@@H](O)[C@@H]1O` (stereo partly drawn) [compound 1, kaempferol 3-O-[(6‴-O-acetyl-β-D-glucopyranosyl)-(1→4)-3″-O-(4⁗, 4⁗-dimethyl-3-oxo-butyl)-α-L-rhamnopyranoside]], on COX-1, the inhibition at 10 µg/mL turned out to be 52%.

The term IC50 denotes the point on the concentration scale where inhibition reaches its midpoint.
